Patent publication US20230139171A1 (SITA Information Networking Computing UK Limited, priority 2019, published 2023)

Tests used:
human TLR9 = target: T1, human TLR9 (Homo sapiens, UniProt Q9NR96); assay: TLR9 inhibition reporter assay (HEK-Blue cells, SEAP reporter, ODN2006 stimulation); assay type: cell-based; details: HEK-Blue cells overexpressing human TLR9, SEAP reporter, ODN2006 5 nM
T1 construct: host or cells: HEK-Blue cells
T1 sequence (Q9NR96 26-1032): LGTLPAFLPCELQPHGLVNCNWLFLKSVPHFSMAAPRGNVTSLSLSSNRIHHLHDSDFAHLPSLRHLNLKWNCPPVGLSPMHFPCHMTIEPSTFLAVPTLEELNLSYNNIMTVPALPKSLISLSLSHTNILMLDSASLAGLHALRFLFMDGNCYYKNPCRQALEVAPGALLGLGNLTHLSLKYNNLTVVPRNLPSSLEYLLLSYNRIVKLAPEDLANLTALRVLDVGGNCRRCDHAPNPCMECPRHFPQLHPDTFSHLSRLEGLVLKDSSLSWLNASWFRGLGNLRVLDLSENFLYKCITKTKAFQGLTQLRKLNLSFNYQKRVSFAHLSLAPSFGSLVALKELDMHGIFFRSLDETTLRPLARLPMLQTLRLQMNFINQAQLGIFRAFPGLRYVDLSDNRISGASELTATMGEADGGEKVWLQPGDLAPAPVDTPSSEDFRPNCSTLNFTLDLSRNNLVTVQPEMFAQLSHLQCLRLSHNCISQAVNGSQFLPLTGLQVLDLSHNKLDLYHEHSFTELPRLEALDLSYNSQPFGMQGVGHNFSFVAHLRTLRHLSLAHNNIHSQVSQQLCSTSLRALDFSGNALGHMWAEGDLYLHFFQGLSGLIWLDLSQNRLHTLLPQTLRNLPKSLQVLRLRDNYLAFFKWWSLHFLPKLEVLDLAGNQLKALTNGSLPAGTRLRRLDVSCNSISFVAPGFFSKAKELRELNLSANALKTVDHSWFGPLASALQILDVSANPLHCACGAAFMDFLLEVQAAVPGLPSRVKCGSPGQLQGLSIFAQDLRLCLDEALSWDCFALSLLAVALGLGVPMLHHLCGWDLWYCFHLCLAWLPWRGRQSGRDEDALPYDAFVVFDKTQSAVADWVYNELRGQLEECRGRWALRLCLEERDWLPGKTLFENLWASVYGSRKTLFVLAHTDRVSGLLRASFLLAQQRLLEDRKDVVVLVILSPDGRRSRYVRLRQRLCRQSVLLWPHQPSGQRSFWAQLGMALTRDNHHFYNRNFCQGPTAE
Outline: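 Agonists used: gardiquimod 7.5 μM (TLR7), R848 15.9 μM (TLR8), ODN2006 5 nM (TLR9), added after 30 min room-temperature compound pre-treatment (0.05 nM–50 μM) of receptor-overexpressing HEK-Blue cells. SEAP reporter (NF-κB/AP-1 driven) read after 22 h at 37 °C; inhibition scaled between agonist+DMSO and reference-inhibitor wells.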

TLR7 = assay: In vivo mouse TLR7 PD model (gardiquimod challenge, plasma IL-6 and IFN-alpha by ELISA); design: species or system C57BL/6 mice; details: oral
Procedure: In Vivo Mouse TLR7 PD Model:
Adult male C57BL/6 mice were used for the experiments. Mice (7 to 10 per group) were randomized into different treatment groups based on body weight. Mice from the respective treatment groups were administered orally with vehicle or test compound. Thirty min after the oral administration of vehicle or test compound, mice were challenged with intraperitoneal injection of gardiquimod for TLR7 PD model. Ninety minutes after gardiquimod injection, mice were bled under isoflurane anaesthesia and plasma IL-6 and IFN-alpha levels were estimated by using commercially available ELISA kit (BD Biosciences, PBL Life Sciences). At the end of experiment, mean cytokine data was plotted and one way ANOVA with Dunnett's test was performed to calculate the significance of test compound treated group vs. vehicle control group. Percent inhibition of cytokine induction was calculated for test compound treated group vs vehicle control group.

## COc1cc(-c2[nH]c3sc(C4CCC(NC5COC5)CC4)nc3c2C(C)C)cn2ncnc12 (single isomer, unassigned) [Example 65, N-(4-(6-isopropyl-5-(8-methoxy-[1,2,4]triazolo[1,5-a]pyridin-6-yl)-4H-pyrrolo[3,2-d]thiazol-2-yl)cyclohexyl)oxetan-3-amine]
Human TLR9
  IC50: 10.1 µM
TLR7; dose 0.001 mg/kg
  % inhibition of IFN-alpha: 50%
  % inhibition of IL6: 21%
TLR7; dose 0.005 mg/kg
  % inhibition of IFN-alpha: 63%
  % inhibition of IL6: 42%
TLR7; dose 0.025 mg/kg
  % inhibition of IFN-alpha: 97%
  % inhibition of IL6: 78%
TLR7; dose 0.050 mg/kg
  % inhibition of IFN-alpha: 99%
  % inhibition of IL6: 94%
